Earlier results on 1 molecule are cited in patent EP3277282B1 (Istanbul Universitesi Rektorlugu, priority 2015, dated 2016).

The conditions of series [1]: given to human by oral route.

In the case of `Cc1nc(Nc2ncc(C(=O)Nc3c(C)cccc3Cl)s2)cc(N2CCN(CCO)CC2)n1` [Dasatinib, N-(2-chloro-6-methylphenyl)-2-[[6-[4-(2-hydroxyethyl)-1-piperazinyl]-2-methyl]-4-pyrimidinyl]amino]-5-thiazolecarboxamide mono-hydrate], the “solubility in ethanol, methanol and organic solvents” value is reported as “soluble”. In addition, the systemic side effects entry in series [1] is reported as “bleeding in the intestines”.
